From US20030130272A1, “Anthracene derivatives as anti-cancer agents” (priority 1999, published 2003)
Counter-ions that a name gives are not always drawn.

Tests used:
topo I = target: T1, topo I (Homo sapiens, UniProt P11387); assay: Inhibition of topoisomerase I mediated relaxation of pBR322 DNA; format: biochemical
T1 sequence (P11387 1-765): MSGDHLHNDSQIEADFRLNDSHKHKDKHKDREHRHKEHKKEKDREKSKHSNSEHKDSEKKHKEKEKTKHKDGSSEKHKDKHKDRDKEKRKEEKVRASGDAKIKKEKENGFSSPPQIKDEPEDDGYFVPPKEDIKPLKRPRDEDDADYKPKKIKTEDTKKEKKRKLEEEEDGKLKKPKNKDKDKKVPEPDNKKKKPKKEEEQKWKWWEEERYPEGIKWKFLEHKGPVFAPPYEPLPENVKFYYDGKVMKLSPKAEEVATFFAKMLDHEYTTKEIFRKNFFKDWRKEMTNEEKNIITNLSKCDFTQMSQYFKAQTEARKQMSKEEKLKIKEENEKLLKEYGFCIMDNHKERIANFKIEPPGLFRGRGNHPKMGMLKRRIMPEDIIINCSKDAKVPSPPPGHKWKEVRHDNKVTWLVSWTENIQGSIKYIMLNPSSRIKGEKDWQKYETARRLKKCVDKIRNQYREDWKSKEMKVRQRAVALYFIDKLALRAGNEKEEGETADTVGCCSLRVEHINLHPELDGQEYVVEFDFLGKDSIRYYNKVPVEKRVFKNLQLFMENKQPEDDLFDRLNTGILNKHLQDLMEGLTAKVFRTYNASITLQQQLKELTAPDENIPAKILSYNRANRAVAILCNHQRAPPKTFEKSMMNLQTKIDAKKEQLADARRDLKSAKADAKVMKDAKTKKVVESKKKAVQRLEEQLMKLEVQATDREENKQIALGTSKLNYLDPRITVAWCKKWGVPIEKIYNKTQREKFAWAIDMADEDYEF

MAC 15A cells = assay: In vitro activity against MAC 15A adenocarcinoma (MTT assay); format: cell-based; conditions: MAC15A colon adenocarcinoma, 96 hours continuous exposure
Protocol: MAC 15A cells were grown in RPMI 1640 medium supplemented with 10% foetal calf serum containing a 1% antibiotic mixture under standard tissue culture conditions and were maintained at 37° C. in a humidified atmosphere of 5% CO2 in air. Cells were harvested from a stock culture in exponential growth phase and plated in 96-well flat-bottomed plates to achieve a final density of 2×10^3 cells per well. After 2 hours incubation medium was replaced with either fresh medium containing 0.5% DMSO (control) or medium containing test compound dissolved in DMSO at a concentrations from 10 mM to 1 nM. Chemosensitivity was assessed using MTT assay by the method of Plumb et al Cancer Research 49 (1989) 4435-4440.
Following 96 hours continuous exposure to drug at 37° C. cells were incubated with fresh drug-free medium immediately prior to addition of MTT solution (5 mg/ml). Medium and MTT were removed after 4 hours and 150 μl of DMSO was added. For each plate the absorbance of the resulting solution was measured at the analytical wavelength 550 nm for formnazan product, using a Labsystem Mutiskan. IC50 values were obtained from growth curves of drug concentration against % survival and are expressed in μm.
In vitro Cytotoxicity of Spacer Limked Anthraquinone Peptide Conjugates on MAC15A Colon Adenocarcinoma

Compound	IC50 (MAC 15A cells) [µM]	other results
O=C1c2ccccc2C(=O)c2c1cccc2N1CCC[C@H]1C(=O)O [Example 6, (2S)-1-(9,10-dioxoanthryl)prrolidine-2-carboxylic acid]	–	DNA-topoisomerase activity: inhibition of topo I relaxation (topo I; at 100 μM): PARTIAL inhibition at 100 μM
C[C@H](N)C(=O)OC1CCN(c2cccc3c2C(=O)c2ccccc2C3=O)CC1.O=C(O)C(F)(F)F [Example 11, 1-(9,10-dioxoanthryl)-4-piperidyl-(2S)-2-aminopropanoate trifluoroacetate salt]	14	DNA-topoisomerase activity: inhibition of topo I relaxation (topo I; between 25-100 μM): NO inhibition between 25-100 μM
C[C@H](N)C(=O)OC[C@@H]1CCCN1c1cccc2c1C(=O)c1ccccc1C2=O [Example 13, [(2S)]-1-(9,10-dioxoanthryl)pyrrolidin-2-yl]methyl (2S)-2-aminopropanoate trifluoroacetate salt]	22	–
C[C@H](NC(=O)OC(C)(C)C)C(=O)N1CCN(c2cccc3c2C(=O)c2ccccc2C3=O)CC1 [Example 16, 1-(1-N-tertiarybutoxycarbonyl-L-alanylpiperazinyl)anthracene-9,10-dione]	–	DNA-topoisomerase activity: inhibition of topo I relaxation (topo I; between 25-100 μM): NO inhibition between 25-100 μM
C[C@H](N)C(=O)N1CCN(c2cccc3c2C(=O)c2cccc(N4CCN(C(=O)[C@H](C)N)CC4)c2C3=O)CC1 [Example 23, 1,5-bis(1-L-alanylpiperazinyl)anthracene-9,10-dione trifluoroacetate salt]	15	–
NCC(=O)NC1CCC(Nc2cccc3c2C(=O)c2ccccc2C3=O)CC1 (centres unmarked) [Example 30, 2-amino-N-{4-[(9,10-dioxoanthryl)amino]cyclohexyl}acetamide trifluoroacetate salt]	6	–
C[C@H](N)C(=O)NC1CCC(Nc2cccc3c2C(=O)c2ccccc2C3=O)CC1 (stereo partly drawn) [Example 32, (2S)-2-amino-N-{4-[(9,10-dioxoanthryl)amino]cyclohexyl}propanamide trifluoroacetate salt]	4.4	–
C[C@@H](N)C(=O)NC1CCC(Nc2cccc3c2C(=O)c2ccccc2C3=O)CC1 (stereo partly drawn) [Example 34, (2R)-2-amino-N-{4-[(9,10-dioxoanthryl)amino]cyclohexyl}propanamide trifluoroacetate salt]	3.9	–
CC(C)[C@H](N)C(=O)NC1CCC(Nc2cccc3c2C(=O)c2ccccc2C3=O)CC1 (stereo partly drawn) [Example 36, (2S)-2-amino-N-{4-[(9,10-dioxoanthryl)amino]cyclohexyl}-3-methylbutanamide trifluoroacetate salt]	4.5	–
CC(C)[C@@H](N)C(=O)NC1CCC(Nc2cccc3c2C(=O)c2ccccc2C3=O)CC1 (stereo partly drawn) [Example 38, (2R)-2-amino-N-{4-[(9,10-dioxoanthryl)amino]cyclohexyl}-3-methylbutanamide trifluoroacetate salt]	4.2	–
O=C1c2ccccc2C(=O)c2c(NC3CCC(NC(=O)[C@@H]4CCCN4)CC3)cccc21 (stereo partly drawn) [Example 40, ((2S)pyrrolidin-2-yl)-N-{4-[(9,10-dioxoanthryl)amino]cyclohexyl}-carboxamide trifluoroacetate salt]	4.2	–
N[C@@H](Cc1ccccc1Cl)C(=O)NC1CCC(Nc2cccc3c2C(=O)c2ccccc2C3=O)CC1 (stereo partly drawn) [Example 44, (2S)-2-amino-N-{4-[(9,10-dioxoanthryl)amino]cyclohexyl}-3-(2-chlorophenyl)propanamide trifluoroacetate salt]	3	–
N[C@H](Cc1ccccc1Cl)C(=O)NC1CCC(Nc2cccc3c2C(=O)c2ccccc2C3=O)CC1 (stereo partly drawn) [Example 46, (2R)-2-amino-N-{4-[(9,10-dioxoanthryl)amino]cyclohexyl}-3-(2-chloro-phenyl)propanamide trifluoroacetate salt]	4.1	–
NCC(=O)NCCCN1CCN(CCCNc2cccc3c2C(=O)c2ccccc2C3=O)CC1.O=C(O)C(F)(F)F.O=C(O)C(F)(F)F.O=C(O)C(F)(F)F [Example 49, 2-amino-N-[3-(4-{3-[(9,10-dioxoanthryl)amino]propyl}piperazinyl)-propyl]acetamide tri-trifluoroacetate salt]	–	DNA-topoisomerase activity: inhibition of topo I relaxation (topo I; at 25 μM): PARTIAL inhibition; DNA-topoisomerase activity: inhibition of topo I relaxation (topo I; at 50 μM): COMPLETE
C[C@@H](N)C(=O)NCCCN1CCN(CCCNc2cccc3c2C(=O)c2ccccc2C3=O)CC1 [Example 53, (2R)-2-amino-N-[3-(4-{3-[(9,10-dioxoanthryl)amino]propyl}-piperazinyl)propyl]propanamide trifluoroacetate salt]	4.9	–
CC(C)[C@H](N)C(=O)NCCCN1CCN(CCCNc2cccc3c2C(=O)c2ccccc2C3=O)CC1.O=C(O)C(F)(F)F [Example 55, (2S)-2-amino-N-[3-(4-{3-[(9,10-dioxoanthryl)amino]propyl}-piperazinyl)propyl]-3-methylbutanamide trifluoroacetate salt]	–	DNA-topoisomerase activity: inhibition of topo I relaxation (topo I; at 25 μM): PARTIAL inhibition; DNA-topoisomerase activity: inhibition of topo I relaxation (topo I; at 50 μM): COMPLETE
N[C@H](Cc1ccccc1)C(=O)NCCCN1CCN(CCCNc2cccc3c2C(=O)c2ccccc2C3=O)CC1 [Example 61, (2R)-2-amino-N-[3-(4-{3-[(9,10-dioxoanthryl)amino]propyl}-piperazinyl)propyl]-3-phenylpropanamide trifluoroacetate salt]	3.8	–
N[C@@H](Cc1ccc(O)cc1)C(=O)NCCCN1CCN(CCCNc2cccc3c2C(=O)c2ccccc2C3=O)CC1.O=C(O)C(F)(F)F [Example 63, (2S)-2-amino-N-[3-(4-{3-[(9,10-dioxoanthryl)amino]propyl}-piperazinyl)propyl]-3-(4-hydroxyphenyl)propanamide trifluoroacetate salt]	–	DNA-topoisomerase activity: inhibition of topo I relaxation (topo I; at 25 μM): PARTIAL inhibition; DNA-topoisomerase activity: inhibition of topo I relaxation (topo I; at 50 μM): COMPLETE
C[C@H](N)C(=O)NC1CCCCC1Nc1cccc2c1C(=O)c1ccccc1C2=O.O=C(O)C(F)(F)F (stereo partly drawn) [Example 66, (2S)-2-amino-N-{2-[(9,10-dioxoanthryl)amino]cyclohexyl}propanamide trifluoroacetate salt]	6.7	DNA-topoisomerase activity: inhibition of topo I relaxation (topo I; at 10 μM): COMPLETE inhibition at 10 μM; concentrations; DNA-topoisomerase activity: inhibition of topo I relaxation (topo I; concentrations above 10 μM): above this value antagonised inhibitory activity
NCCC(=O)NC1CCCCC1Nc1cccc2c1C(=O)c1ccccc1C2=O (centres unmarked) [Example 68, 3-amino-N-{2-[(9,10-dioxoanthryl)amino]cyclohexyl}propanamide trifluoroacetate salt]	6.2	–
NCC(=O)Nc1ccc(Nc2cccc3c2C(=O)c2ccccc2C3=O)cc1 [Example 70, 2-amino-N-{4-[(9,10-dioxoanthryl)amino]phenyl}acetamide trifluoroacetate salt]	2.2	–
NCCCC[C@H](N)C(=O)N1CCN(c2cccc3c2C(=O)c2ccccc2C3=O)CC1 [Example 79, 1-[4-((2S)-2-6-diaminohexanoyl)piperazinyl]anthracene-9,10-dione bis trifluoroacetate salt]	28	–
N[C@@H](Cc1ccc(Cl)cc1)C(=O)NC1CCC(Nc2cccc3c2C(=O)c2ccccc2C3=O)CC1 (stereo partly drawn) [Example 94, (2S)-2-amino-N-{4-[(9,10-dioxoanthryl)amino]cyclohexyl}-3-(4-chlorophenyl)propanamide trifluoroacetate salt]	1	–
((2S)pyrrolidine-2-yl)-N-[3-(4-{3-[(9,10-dioxoanthryl)amino]propyl}-piperazinyl)propyl]carboxamide trifluoroacetate salt [Example 57]	4.6	DNA-topoisomerase activity: inhibition of topo I relaxation (topo I; at 25 μM): PARTIAL inhibition; DNA-topoisomerase activity: inhibition of topo I relaxation (topo I; at 50 μM): COMPLETE
